Data from patent US20230295200A1 (REGENTS OF THE UNIVERSITY OF MICHIGAN, priority 2022, published 2023).

Assays:
STAT6 protein = biological target: T1, STAT6 protein (Homo sapiens, UniProt P42226); assay: Fluorescence polarization (FP) binding assay, STAT6; details: FP competition, 5 nM fluorescein-labeled tracer, 200 nM protein, PBS pH7.4; read-out: Binding STAT6
T1 sequence (P42226 1-847): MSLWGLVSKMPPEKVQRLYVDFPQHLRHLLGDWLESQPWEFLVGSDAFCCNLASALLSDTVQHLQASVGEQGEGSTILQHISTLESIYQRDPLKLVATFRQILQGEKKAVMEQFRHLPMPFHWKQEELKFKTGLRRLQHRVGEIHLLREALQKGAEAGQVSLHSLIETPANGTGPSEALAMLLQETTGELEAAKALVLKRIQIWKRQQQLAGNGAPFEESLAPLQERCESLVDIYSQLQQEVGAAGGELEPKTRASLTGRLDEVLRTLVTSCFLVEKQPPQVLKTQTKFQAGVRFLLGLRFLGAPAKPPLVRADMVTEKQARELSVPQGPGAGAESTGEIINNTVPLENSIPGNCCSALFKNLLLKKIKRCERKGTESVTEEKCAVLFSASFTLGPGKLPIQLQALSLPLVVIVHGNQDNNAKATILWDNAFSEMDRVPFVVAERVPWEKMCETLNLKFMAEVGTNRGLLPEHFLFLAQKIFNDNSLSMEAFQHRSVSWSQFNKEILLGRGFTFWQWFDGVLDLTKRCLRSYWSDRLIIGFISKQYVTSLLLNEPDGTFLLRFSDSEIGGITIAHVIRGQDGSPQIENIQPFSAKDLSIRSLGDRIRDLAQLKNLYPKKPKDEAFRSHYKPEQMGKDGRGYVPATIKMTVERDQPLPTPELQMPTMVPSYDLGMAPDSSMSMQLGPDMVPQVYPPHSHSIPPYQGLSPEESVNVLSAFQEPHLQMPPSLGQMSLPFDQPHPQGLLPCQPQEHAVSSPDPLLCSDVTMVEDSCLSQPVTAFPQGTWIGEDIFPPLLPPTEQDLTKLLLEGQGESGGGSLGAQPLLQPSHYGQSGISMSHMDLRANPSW
Summary of the method: (§1)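 Polarization of a 5 nM fluorescein tracer bound by 200 nM STAT protein, measured after 1 h room-temperature equilibration in buffered PBS pH 7.4 with DTT, gave inhibition constants via nonlinear curve fitting.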

STAT5A = biological target: T2, STAT5A (Homo sapiens, UniProt P42229); assay: Fluorescence polarization (FP) binding assay, STAT5A; details: FP competition, 5 nM fluorescein-labeled tracer, 200 nM protein, PBS pH7.4
T2 sequence (P42229 1-794): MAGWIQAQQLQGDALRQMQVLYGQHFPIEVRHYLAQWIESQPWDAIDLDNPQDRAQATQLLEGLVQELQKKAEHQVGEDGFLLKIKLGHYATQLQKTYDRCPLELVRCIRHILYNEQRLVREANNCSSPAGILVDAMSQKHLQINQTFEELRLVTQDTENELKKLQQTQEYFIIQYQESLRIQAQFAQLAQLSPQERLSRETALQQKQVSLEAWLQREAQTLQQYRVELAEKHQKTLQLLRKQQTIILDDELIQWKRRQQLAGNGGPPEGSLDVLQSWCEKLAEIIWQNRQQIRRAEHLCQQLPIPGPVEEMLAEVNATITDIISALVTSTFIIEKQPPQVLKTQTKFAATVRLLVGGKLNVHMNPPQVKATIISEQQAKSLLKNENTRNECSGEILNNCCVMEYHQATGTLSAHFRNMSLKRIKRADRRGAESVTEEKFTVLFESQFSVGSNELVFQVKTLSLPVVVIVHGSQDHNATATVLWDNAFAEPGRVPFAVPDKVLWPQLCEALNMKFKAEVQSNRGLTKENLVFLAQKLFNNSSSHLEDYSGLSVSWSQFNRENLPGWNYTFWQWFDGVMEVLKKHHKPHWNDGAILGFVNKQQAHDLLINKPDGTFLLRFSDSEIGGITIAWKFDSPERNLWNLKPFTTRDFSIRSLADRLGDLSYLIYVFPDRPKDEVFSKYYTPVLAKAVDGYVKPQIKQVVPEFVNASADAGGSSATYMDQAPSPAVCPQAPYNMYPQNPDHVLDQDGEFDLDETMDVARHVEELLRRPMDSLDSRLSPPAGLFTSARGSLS
Summary of the method: as §1

CC(=O)N1CC[C@H]2CC[C@@H](C(=O)N3CCOC(c4cccc(Cl)c4)C3)N2C(=O)[C@@H](NC(=O)c2cc3cc(C(F)(F)P(=O)(O)O)ccc3s2)C1 (stereo partly drawn) [Compound 162, ((2-(((5S,8S,10aR)-3-acetyl-8-(2-(3-chlorophenyl)morpholine-4-carbonyl)-6-oxodecahydropyrrolo[1,2-a][1,5]diazocin-5-yl)carbamoyl)benzo[b]thiophen-5-yl)difluoromethyl)phosphonic acid]
Ki (STAT6 protein): 100 to 1000 nM
Ki (STAT5A): > 10 µM

CC(=O)N1CC[C@H]2CC[C@@H](C(=O)N3CCOC(c4cc(F)c(Cl)cc4Cl)C3)N2C(=O)[C@@H](NC(=O)c2cc3cc(C(F)(F)P(=O)(O)O)ccc3s2)C1 (stereo partly drawn) [Compound 163, ((2-(((5S,8S,10aR)-3-acetyl-8-(2-(2,4-dichloro-5-fluorophenyl)morpholine-4-carbonyl)-6-oxodecahydropyrrolo[1,2-a][1,5]diazocin-5-yl)carbamoyl)benzo[b]thiophen-5-yl)difluoromethyl)phosphonic acid]
Ki (STAT6 protein): 1000 to 10000 nM
Ki (STAT5A): > 10 µM

CC(=O)N1CC[C@H]2CC[C@@H](C(=O)N3CCOC(c4ccccc4C)C3)N2C(=O)[C@@H](NC(=O)c2cc3cc(C(F)(F)P(=O)(O)O)ccc3s2)C1 (stereo partly drawn) [Compound 164, ((2-(((5S,8S,10aR)-3-acetyl-6-oxo-8-(2-(o-tolyl)morpholine-4-carbonyl)decahydropyrrolo[1,2-a][1,5]diazocin-5-yl)carbamoyl)benzo[b]thiophen-5-yl)difluoromethyl)phosphonic acid]
Ki (STAT6 protein): 1000 to 10000 nM
Ki (STAT5A): > 10 µM

CC(=O)N1CC[C@H]2CC[C@@H](C(=O)Nc3ncc(-c4ccccc4)s3)N2C(=O)[C@@H](NC(=O)c2cc3cc(C(F)(F)P(=O)(O)O)ccc3s2)C1 [Compound 165, ((2-(((5S,8S,10aR)-3-acetyl-6-oxo-8-((5-phenylthiazol-2-yl)carbamoyl)decahydropyrrolo[1,2-a][1,5]diazocin-5-yl)carbamoyl)benzo[b]thiophen-5-yl)difluoromethyl)phosphonic acid]
Ki (STAT6 protein): 1000 to 10000 nM
Ki (STAT5A): 1 to 10 µM

CC(=O)N1CCN(C(=O)[C@@H]2CCCN2C(=O)[C@@H](NC(=O)c2cc3cc(C(F)(F)P(=O)(O)O)ccc3s2)C(C)(C)C)C[C@H]1c1ccccc1 [Compound 166, ((2-(((S)-1-((S)-2-((R)-4-acetyl-3-phenylpiperazine-1-carbonyl)pyrrolidin-1-yl)-3,3-dimethyl-1-oxobutan-2-yl)carbamoyl)benzo[b]thiophen-5-yl)difluoromethyl)phosphonic acid]
Ki (STAT6 protein): 1000 to 10000 nM
Ki (STAT5A): > 10 µM

CC(=O)N1CCN(C(=O)[C@@H]2CCCN2C(=O)[C@@H](NC(=O)c2cc3cc(C(F)(F)P(=O)(O)O)ccc3s2)C(C)(C)C)C[C@@H]1c1ccccc1 [Compound 167, ((2-(((S)-1-((S)-2-((S)-4-acetyl-3-phenylpiperazine-1-carbonyl)pyrrolidin-1-yl)-3,3-dimethyl-1-oxobutan-2-yl)carbamoyl)benzo[b]thiophen-5-yl)difluoromethyl)phosphonic acid]
Ki (STAT6 protein): 1000 to 10000 nM
Ki (STAT5A): > 10 µM

CC(C)(C)[C@H](NC(=O)c1cc2cc(C(F)(F)P(=O)(O)O)ccc2s1)C(=O)N1CCC[C@H]1C(=O)N1CCN(S(C)(=O)=O)[C@H](c2ccccc2)C1 [Compound 168, ((2-(((S)-3,3-dimethyl-1-((S)-2-((R)-4-(methylsulfonyl)-3-phenylpiperazine-1-carbonyl)pyrrolidin-1-yl)-1-oxobutan-2-yl)carbamoyl)benzo[b]thiophen-5-yl)difluoromethyl)phosphonic acid]
Ki (STAT6 protein): 1000 to 10000 nM
Ki (STAT5A): > 10 µM

CC(C)(C)[C@H](NC(=O)c1cc2cc(C(F)(F)P(=O)(O)O)ccc2s1)C(=O)N1CCC[C@H]1C(=O)N1CCN(S(C)(=O)=O)[C@@H](c2ccccc2)C1 [Compound 169, ((2-(((S)-3,3-dimethyl-1-((S)-2-((S)-4-(methylsulfonyl)-3-phenylpiperazine-1-carbonyl)pyrrolidin-1-yl)-1-oxobutan-2-yl)carbamoyl)benzo[b]thiophen-5-yl)difluoromethyl)phosphonic acid]
Ki (STAT6 protein): 1000 to 10000 nM
Ki (STAT5A): > 10 µM

CC(=O)N1CCN(C(=O)[C@@H](NC(=O)c2cc3cc(C(F)(F)P(=O)(O)O)ccc3s2)C(C)(C)C)[C@H](C(=O)N2CCO[C@H](c3ccccc3)C2)C1 [Compound 170, ((2-(((S)-1-((S)-4-acetyl-2-((R)-2-phenylmorpholine-4-carbonyl)piperazin-1-yl)-3,3-dimethyl-1-oxobutan-2-yl)carbamoyl)benzo[b]thiophen-5-yl)difluoromethyl)phosphonic acid]
Ki (STAT6 protein): 100 to 1000 nM
Ki (STAT5A): 1 to 10 µM

CC(=O)N1CCN(C(=O)[C@@H](NC(=O)c2cc3cc(C(F)(F)P(=O)(O)O)ccc3s2)C(C)(C)C)[C@H](C(=O)N2CCO[C@@H](c3ccccc3)C2)C1 [Compound 171, ((2-(((S)-1-((S)-4-acetyl-2-((S)-2-phenylmorpholine-4-carbonyl)piperazin-1-yl)-3,3-dimethyl-1-oxobutan-2-yl)carbamoyl)benzo[b]thiophen-5-yl)difluoromethyl)phosphonic acid]
Ki (STAT6 protein): 1000 to 10000 nM
Ki (STAT5A): > 10 µM

CC(=O)N1CCN(C(=O)[C@@H](NC(=O)c2cc3cc(C(F)(F)P(=O)(O)O)ccc3s2)C(C)(C)C)[C@H](C(=O)N2CCC[C@H](c3ccccc3)C2)C1 [Compound 175, ((2-(((S)-1-((S)-4-acetyl-2-((R)-3-phenylpiperidine-1-carbonyl)piperazin-1-yl)-3,3-dimethyl-1-oxobutan-2-yl)carbamoyl)benzo[b]thiophen-5-yl)difluoromethyl)phosphonic acid]
Ki (STAT6 protein): 100 to 1000 nM
Ki (STAT5A): 1 to 10 µM

CC(=O)N1CCN(C(=O)[C@@H](NC(=O)c2cc3cc(C(F)(F)P(=O)(O)O)ccc3s2)C(C)(C)C)[C@H](C(=O)N2CC[C@H](c3ccccc3)C2)C1 [Compound 176, ((2-(((S)-1-((S)-4-acetyl-2-((R)-3-phenylpyrrolidine-1-carbonyl)piperazin-1-yl)-3,3-dimethyl-1-oxobutan-2-yl)carbamoyl)benzo[b]thiophen-5-yl)difluoromethyl)phosphonic acid]
Ki (STAT6 protein): 1000 to 10000 nM
Ki (STAT5A): 1 to 10 µM

CC(=O)N1CCN(C(=O)[C@@H](NC(=O)c2cc3cc(C(F)(F)P(=O)(O)O)ccc3s2)C(C)(C)C)[C@H](C(=O)N2CC[C@@H](c3ccccc3)C2)C1 [Compound 177, ((2-(((S)-1-((S)-4-acetyl-2-((S)-3-phenylpyrrolidine-1-carbonyl)piperazin-1-yl)-3,3-dimethyl-1-oxobutan-2-yl)carbamoyl)benzo[b]thiophen-5-yl)difluoromethyl)phosphonic acid]
Ki (STAT6 protein): 1000 to 10000 nM
Ki (STAT5A): > 10 µM

CC(=O)N1CC[C@H]2CC[C@@H](C(=O)N3CCS(=O)(=O)C(c4ccccc4)C3)N2C(=O)[C@@H](NC(=O)c2cc3cc(C(F)(F)P(=O)(O)O)ccc3s2)C1 (stereo partly drawn) [Compound 178, ((2-(((5S,8S,10aR)-3-acetyl-8-(1,1-dioxido-2-phenylthiomorpholine-4-carbonyl)-6-oxodecahydropyrrolo[1,2-a][1,5]diazocin-5-yl)carbamoyl)benzo[b]thiophen-5-yl)difluoromethyl)phosphonic acid]
Ki (STAT6 protein): 100 to 1000 nM
Ki (STAT5A): 1 to 10 µM
